Assay results reported in article PMC12367838, “Relevance of kinetic interactions and co-formulants for plant protection product liver toxicity in vitro” (Archives of Toxicology, 2025).
≈ marks a conversion by molar mass, not a printed value.

Experiments:
[1] = Neutral red uptake (NRU) cytotoxicity assay; type: cell-based, human; conditions: human, differentiated HepaRG cells, NRU assay, 72-h incubation
Experimental: (§1) Wild-type human hepatoma HepaRG cells obtained from Biopredic International (Saint Grégoire, France) were cultivated for 4 weeks in a Binder cell culture incubator maintained at 37 °C in a 5% humidified atmosphere with 5% CO2 before they were employed in this study. The 4 weeks consisted of 2 weeks of proliferation and 2 weeks of differentiation. […]
(§2) Cytotoxicity assays were performed in 96-well plates at a density of 9000 cells per well, and test compounds were incubated for 72 h. […] After the 30-min incubation with WST-1, absorbance was measured at 450 nm corrected by a reference at 620 nm (λexc = 450 nm/λemi = 620 nm) using an Infinite M200 PRO plate reader (Tecan; Männedorf, Switzerland). […] The absorbed dye was quantified by fluorescence measurement (λexc = 530 nm/λemi = 645 nm) on an Infinite M200 PRO plate reader (Tecan; Männedorf, Switzerland). Background corrected viability values of both assays were expressed as a percentage of untreated cells. […] Means and standard deviations for each treatment were calculated. […]

WST-1 cytotoxicity assay = type: cell-based, human; conditions: human, differentiated HepaRG cells, WST-1 assay, 72 h incubation
Experimental: as §1, §2

[2] = CYP450 reaction phenotyping, control-Silensomes; type: in vitro ADME, human
Excerpt: (§3) Silensomes™ CYP phenotyping kits (Lonza; Basel, Switzerland) contain human pooled liver microsomes (HLM) that are chemically and irreversibly inactivated by mechanism-based inhibitor for each specific CYP450 isoenzyme. Each CYP-Silensomes™ has a corresponding control that is produced the same way without inactivation. […] However, CYP2C19-Silensomes™ were not available for purchasing. The assay was essentially performed according to the instructions of the supplier. […] At 0, 10, 20, 30, and 45 min, 50 µL of the reaction volume was removed and put in a tube containing 50 µL of methanol to stop the CYP reactions. The tubes were allowed to stand at 4 °C for 1 h to allow protein precipitation to occur. Afterwards, the tubes were centrifuged at 3500 × g for 15 min at 4 °C before the supernatant was removed and analyzed using LC–MS/MS. The control experiments with the control HLM were performed at the same time as the Silensomes™. The in vitro intrinsic clearance (Clint) for each enzyme was calculated as follows: Clint (µL/min/mg) = (slope × V)/P, where the slope is the elimination rate constant (min^−1) for exponential substrate loss, V is the incubation volume (µL), and P is the microsomal protein (mg). The fraction metabolized by each CYP enzymes was determined as follows: fm = (1 – (Clint CYP-Silensomes™/Clint Control-Silensomes™)) × 100. […]

CYP1A2 = experiment: CYP450 reaction phenotyping, CYP1A2-Silensomes; type: in vitro ADME, human
Excerpt: Silensomes™ CYP phenotyping kits (Lonza; Basel, Switzerland) contain human pooled liver microsomes (HLM) that are chemically and irreversibly inactivated by mechanism-based inhibitor for each specific CYP450 isoenzyme. Each CYP-Silensomes™ has a corresponding control that is produced the same way without inactivation. […] However, CYP2C19-Silensomes™ were not available for purchasing. The assay was essentially performed according to the instructions of the supplier. […] At 0, 10, 20, 30, and 45 min, 50 µL of the reaction volume was removed and put in a tube containing 50 µL of methanol to stop the CYP reactions. The tubes were allowed to stand at 4 °C for 1 h to allow protein precipitation to occur. Afterwards, the tubes were centrifuged at 3500 × g for 15 min at 4 °C before the supernatant was removed and analyzed using LC–MS/MS. The control experiments with the control HLM were performed at the same time as the Silensomes™. The in vitro intrinsic clearance (Clint) for each enzyme was calculated as follows: Clint (µL/min/mg) = (slope × V)/P, where the slope is the elimination rate constant (min^−1) for exponential substrate loss, V is the incubation volume (µL), and P is the microsomal protein (mg). The fraction metabolized by each CYP enzymes was determined as follows: fm = (1 – (Clint CYP-Silensomes™/Clint Control-Silensomes™)) × 100. Three independent experiments were conducted with the same batch of Silensomes™.

CYP2C9 [3] = experiment: CYP450 reaction phenotyping, CYP2C9-Silensomes; type: in vitro ADME; conditions: human, pH 7.4
Excerpt: as §3

CYP3A4 [4] = experiment: CYP450 reaction phenotyping, CYP3A4-Silensomes; type: in vitro ADME, human
Excerpt: as §3

CYP3A4 [5] = conditions: clearance of DIF in healthy human adults; ref Wetmore et al. (2014); cited from earlier work
CYP2C9 [6] = conditions: clearance of DIF in healthy human adults; ref Wetmore et al. (2014); cited from earlier work
UGT1A4 = conditions: clearance of DIF in healthy human adults; ref Wetmore et al. (2014); cited from earlier work
HepaRG cells [7] = experiment: Total RNA sequencing, differential gene expression; conditions: 24 h, vs solvent control
HepaRG cells [8] = experiment: Quantification of DIF in cell culture supernatant (LC-MS/MS); conditions: 24-h treatment of HepaRG cells; µg DIF in medium/µg start concentration × 100%
Experimental: HepaRG cells were incubated for 24 h at 37 °C and 5% CO2 in a humidified atmosphere with each test compound in treatment medium of 0.5% final DMSO concentration. After incubation, medium was harvested and cells were washed twice with 0.5 mL PBS, which was added to the harvested medium. Cell lysis was performed on ice by adding 0.55 mL of RIPA Lysis and Extraction Buffer (Thermo Fisher Scientific, Waltham, Massachusetts, USA) in each well. The experiment was conducted in duplicates, which were pooled to make a final volume of 3 mL for medium samples and 1.1 ml of the cell samples for each test compound. The Pierce™ BCA Protein Assay Kit (Thermo Fisher Scientific, Waltham, Massachusetts, USA) was utilized to quantify protein in 50 µL of the cell lysates in order to normalize the measured pesticide concentrations in cells to absolute protein quantities.
Briefly, each of the 1.5 mL of medium samples and 500 µL cell samples was added to 50 mL centrifuge tubes. Up to 5 mL Milli-Q water was added followed by 10 mL acetonitrile. The mixture was shaken vigorously by a vortex mixer for 10 min. […]
Samples from the CYP450 reaction phenotyping and pesticide quantification were analyzed with an Agilent 1290 Infinity II LC system coupled to Agilent 6475 triple quadrupole LC/MS systems (Agilent Technologies; Heilbronn, Germany). […]

[9] = high sub-cytotoxic concentration
[10] = low sub-cytotoxic concentration

CC1COC(Cn2cncn2)(c2ccc(Oc3ccc(Cl)cc3)cc2Cl)O1 (centres unmarked) [DIF, difenoconazole]
EC50 at 72 h [1]: 15.9 µg/mL (≈ 39.1 µM) | EC50 at 72 h (WST-1 cytotoxicity assay): 11.8 µg/mL (≈ 29 µM) | DIF remaining, control-Silensomes ([2]; after a 45-min incubation): about 20% | microsomal CLint at 1 µM ([2]; human, pH 7.4): 15.7 µL/min/mg | CYP1A2 fm (fraction metabolized) (CYP1A2; Silensomes vs control-Silensomes): ≈ 0% | DIF remaining, CYP1A2-Silensomes (CYP1A2; after a 45-min incubation): about 20% | microsomal CLint at 1 µM (CYP1A2; human, pH 7.4): 15.8 µL/min/mg | microsomal CLint at 1 µM (CYP2C9 [3]): 12.5 µL/min/mg | CLint, CYP3A4-Silensomes (CYP3A4 [4]; 1 µM DIF, 1 mg/mL, 37 °C): 9.27 µL x min^−1 × mg^−1 | DIF remaining, CYP3A4-Silensomes (CYP3A4 [4]; after 45 min): ~40% | CYP3A4 fm (CYP3A4 [5]): 43.3% | CYP2C9 fm (CYP2C9 [6]): 5.41% | UGT1A4 fm (UGT1A4): 4.55% | ACOX1 log2FoldChange (HepaRG cells [7]; [9]): -0.02489 | AHR log2FoldChange (HepaRG cells [7]; [9]): 0.5444 | CD36 log2FoldChange (HepaRG cells [7]; [9]): -0.5278 | FASN log2FoldChange (HepaRG cells [7]; [9]): -0.3325 | INSIG1 log2FoldChange (HepaRG cells [7]; [9]): -1.049 | MLXIPL log2FoldChange (HepaRG cells [7]; [9]): 0.2472 | NR1H2 log2FoldChange (HepaRG cells [7]; [9]): 0.8621 | NR1H4 log2FoldChange (HepaRG cells [7]; [9]): -0.4056 | NR1I2 log2FoldChange (HepaRG cells [7]; [9]): 0.3067 | NR1I3 log2FoldChange (HepaRG cells [7]; [9]): -1.429 | NR3C1 log2FoldChange (HepaRG cells [7]; [9]): 0.4134 | PPARA log2FoldChange (HepaRG cells [7]; [9]): -0.3067 | PPARG log2FoldChange (HepaRG cells [7]; [9]): 2.421 | RARA log2FoldChange (HepaRG cells [7]; [9]): 0.4466 | RARB log2FoldChange (HepaRG cells [7]; [9]): 1.042 | RARG log2FoldChange (HepaRG cells [7]; [9]): 0.1102 | SCD log2FoldChange (HepaRG cells [7]; [9]): -0.7403 | SREBF1 log2FoldChange (HepaRG cells [7]; [9]): -1.013 | ACOX1 log2FoldChange (HepaRG cells [7]; [10]): 0.1757 | AHR log2FoldChange (HepaRG cells [7]; [10]): -0.129 | CD36 log2FoldChange (HepaRG cells [7]; [10]): 0.878 | FASN log2FoldChange (HepaRG cells [7]; [10]): 0.4404 | INSIG1 log2FoldChange (HepaRG cells [7]; [10]): 1.024 | MLXIPL log2FoldChange (HepaRG cells [7]; [10]): 0.1497 | NR1H2 log2FoldChange (HepaRG cells [7]; [10]): 0.1806 | NR1H4 log2FoldChange (HepaRG cells [7]; [10]): 0.1474 | NR1I2 log2FoldChange (HepaRG cells [7]; [10]): 0.3965 | NR1I3 log2FoldChange (HepaRG cells [7]; [10]): -0.3855 | NR3C1 log2FoldChange (HepaRG cells [7]; [10]): -0.2111 | PPARA log2FoldChange (HepaRG cells [7]; [10]): 0.07836 | PPARG log2FoldChange (HepaRG cells [7]; [10]): 0.2447 | RARA log2FoldChange (HepaRG cells [7]; [10]): 0.1188 | RARB log2FoldChange (HepaRG cells [7]; [10]): 0.3597 | RARG log2FoldChange (HepaRG cells [7]; [10]): 0.07285 | SCD log2FoldChange (HepaRG cells [7]; [10]): 0.5665 | SREBF1 log2FoldChange (HepaRG cells [7]; [10]): -0.5234 | DIF remaining in the cell culture medium (HepaRG cells [8]): ~4%
